Data as given in patent US20050032888A1 (priority 2001, published 2005).

Legend:
[1] = cited from earlier work
skin of older probands = experiment: Regular topical application of ascorbic acid to the skin of older probands (confocal microscopy in vivo)
Excerpt: Status and changes of the microcapillary system and the rete peg pattern can be shown, followed, and quantified on probands quickly (in minutes) by means of modern techniques, such as confocal microscopy in vivo—i.e., free of injury, repeatedly as often as desired, and with dynamic responses to actual influences—both with respect to the density of the rete pegs or microcapillaries (number per surface unit) and with respect to their height, which makes it possible to estimate the size of the exchange surface.

SMILES: O=C1O[C@H]([C@@H](O)CO)C(O)=C1O [ascorbic acid]
- stability to heat ([1]; heat): sensitive to heat
- stability in a pure, dry state ([1]; pure, dry state, light, air, heat): relatively resistant to light, air, and heat
- stability in the presence of traces of heavy metal and in an alkaline environment ([1]; traces of heavy metal, alkaline environment, air and atmospheric oxygen): decomposes
- density of rete pegs and microcapillaries (skin of older probands): reversibly increased to the extent of youthful skin
- elasticity parameters of the skin (formation of suction blisters) (skin of older probands): improvement
- moisture content and roughness of the horny layer (skin of older probands): improvement
